Experimental data taken from the supplement of paper PMC10307832.

Columns and labels:
Assay in all cases: relative viability (nuclei count vs DMSO), 5 days (fraction); higher = more cells survive
Bleomycin + Foretinib = compound: CC1=C(N=C(N=C1N)[C@H](CC(=O)N)NC[C@@H](C(=O)N)N)C(=O)N[C@@H]([C@H](C2=CN=CN2)OC3C(C(C(C(O3)CO)O)O)OC4C(C(C(C(O4)CO)O)OC(=O)N)O)C(=O)N[C@H](C)[C@H]([C@H](C)C(=O)N[C@@H]([C@@H](C)O)C(=O)NCCC5=NC(=CS5)C6=NC(=CS6)C(=O)NCCC[S+](C)C)O [Bleomycin] + COc1cc2c(Oc3ccc(NC(=O)C4(C(=O)Nc5ccc(F)cc5)CC4)cc3F)ccnc2cc1OCCCN1CCOCC1 [Foretinib] (partner 0.25 µM); details: main component drawn
Method in brief: (§1)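 Lung cancer cell lines, seeded in 1536-well plates, were treated the following day by pin tool with a single drug or with five library-drug doses (not always all listed) in √10 steps on top of a fixed anchor-drug dose. Cells were fixed and nuclei stained in one step after 5 days, and nuclei were counted. Relative viability is the nuclei count for treated wells divided by that for vehicle wells, reported as medians of duplicate plates.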

Etoposide + OSI-027 = compound: COc1cc([C@@H]2c3cc4c(cc3[C@@H](O[C@@H]3O[C@@H]5CO[C@@H](C)O[C@H]5[C@H](O)[C@H]3O)[C@H]3COC(=O)[C@H]23)OCO4)cc(OC)c1O [Etoposide] + COc1cccc2cc(-c3nc([C@H]4CC[C@H](C(=O)O)CC4)n4ncnc(N)c34)[nH]c12 [OSI-027] (partner 0.5 µM)
Method in brief: as §1

Etoposide + Pemetrexed = compound: COc1cc([C@@H]2c3cc4c(cc3[C@@H](O[C@@H]3O[C@@H]5CO[C@@H](C)O[C@H]5[C@H](O)[C@H]3O)[C@H]3COC(=O)[C@H]23)OCO4)cc(OC)c1O [Etoposide] + Nc1nc2[nH]cc(CCc3ccc(C(=O)N[C@@H](CCC(=O)O)C(=O)O)cc3)c2c(=O)[nH]1 [Pemetrexed] (partner 0.2 µM)
Method in brief: as §1

Etoposide + Lapatinib = compound: COc1cc([C@@H]2c3cc4c(cc3[C@@H](O[C@@H]3O[C@@H]5CO[C@@H](C)O[C@H]5[C@H](O)[C@H]3O)[C@H]3COC(=O)[C@H]23)OCO4)cc(OC)c1O [Etoposide] + CS(=O)(=O)CCNCc1ccc(-c2ccc3ncnc(Nc4ccc(OCc5cccc(F)c5)c(Cl)c4)c3c2)o1 [Lapatinib] (partner 2 µM)
Method in brief: as §1

Cell Line	relative viability (Bleomycin + Foretinib; first compound 0.01 µM)	relative viability (Bleomycin + Foretinib; first compound 0.03162 µM)	relative viability (Bleomycin + Foretinib; first compound 0.1 µM)	relative viability (Bleomycin + Foretinib; first compound 0.3162 µM)	relative viability (Bleomycin + Foretinib; first compound 1 µM)	relative viability (Etoposide + OSI-027; first compound 0.01 µM)	relative viability (Etoposide + OSI-027; first compound 0.03162 µM)	relative viability (Etoposide + OSI-027; first compound 0.1 µM)	relative viability (Etoposide + OSI-027; first compound 0.3162 µM)	relative viability (Etoposide + OSI-027; first compound 1 µM)	relative viability (Etoposide + Pemetrexed; first compound 0.01 µM)	relative viability (Etoposide + Pemetrexed; first compound 0.03162 µM)	relative viability (Etoposide + Pemetrexed; first compound 0.1 µM)	relative viability (Etoposide + Pemetrexed; first compound 0.3162 µM)	relative viability (Etoposide + Pemetrexed; first compound 1 µM)	relative viability (Etoposide + Lapatinib; first compound 0.01 µM)	relative viability (Etoposide + Lapatinib; first compound 0.03162 µM)	relative viability (Etoposide + Lapatinib; first compound 0.3162 µM)	relative viability (Etoposide + Lapatinib; first compound 1 µM)	relative viability (Etoposide + Lapatinib; first compound 0.1 µM)
ChaGo-K-1	0.831	0.75	0.754	0.507	0.444	0.487	0.689	0.466	0.285	0.174	0.267	0.261	0.259	0.261	0.218					
EBC-1	0.104	0.106	0.107	0.106	0.105											0.2	0.245	0.214	0.196	
EKVX	0.707	0.889	0.423	0.335	0.314	0.694	0.651	0.429	0.617	0.364	0.351	0.443	0.344	0.285	0.248	0.195	0.197	0.159	0.143	0.153
EMC-BAC-2	0.859	0.74	0.63	0.35	0.247	0.353	0.383	0.294	0.23	0.15	0.442	0.466	0.476	0.37	0.284	0.855	0.822	0.344	0.215	0.572
EPLC-272H	0.61	0.653	0.51	0.17	0.1	0.287	0.293	0.209	0.326	0.243	0.344	0.327	0.318	0.315	0.308	0.862	1.05	0.807	0.408	0.497
H3255	0.705	0.813	0.699	0.553	0.432	0.617	0.709	0.417	0.542	0.477	0.541	0.619	0.564	0.536	0.404	0.234	0.241	0.262	0.196	0.228
HARA	0.794	0.793	0.777	0.397	0.379	0.517	0.554	0.151	0.422	0.118	0.235	0.309	0.25	0.261	0.232	0.591	0.811	0.56	0.134	0.675
HCC-15	0.869	0.913	0.752	0.33	0.227	0.785	0.718	0.563	0.291	0.144	0.213	0.222	0.218	0.183	0.171	0.849	0.832	0.329	0.152	0.846
